Experiments:
[1] = target: T1, His tagged PTPN2 (TC45) protein (Homo sapiens, UniProt P17706); assay: Mobility shift assay (MSA) to determine potency of PTPN2 inhibitors; assay type: biochemical; settings: 0.5 nM enzyme, 2 μM substrate
T1 construct: made in house
T1 sequence (P17706 with tags, fused parts or gaps isoform P17706-2): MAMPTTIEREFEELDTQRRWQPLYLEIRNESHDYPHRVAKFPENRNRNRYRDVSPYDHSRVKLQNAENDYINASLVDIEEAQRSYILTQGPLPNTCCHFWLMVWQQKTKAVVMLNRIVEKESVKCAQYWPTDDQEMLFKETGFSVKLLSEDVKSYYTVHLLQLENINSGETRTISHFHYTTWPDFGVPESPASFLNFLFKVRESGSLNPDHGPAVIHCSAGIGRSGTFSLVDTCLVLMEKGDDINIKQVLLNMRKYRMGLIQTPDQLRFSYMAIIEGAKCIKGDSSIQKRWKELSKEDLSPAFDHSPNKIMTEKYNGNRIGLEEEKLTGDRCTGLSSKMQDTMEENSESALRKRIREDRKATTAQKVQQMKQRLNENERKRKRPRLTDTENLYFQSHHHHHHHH
Procedure, shortened: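 His-tagged human PTPN2 (TC45), 0.5 nM, preincubated 10 min at room temperature with compound (12-point, 1:3 dilutions) in HEPES pH 7.5 buffer with EGTA, EDTA, Tween 20 and DTT. Then 2 μM OG488-labelled phospho-insulin-receptor peptide was added for 10 min and quenched. % conversion was read by mobility shift, and IC50 came from % inhibition.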

[2] = target: T2, His tagged full-length PTPN1 protein (Homo sapiens, UniProt P18031); assay: Mobility shift assay (MSA) to determine potency of PTPN1 inhibitors; assay type: biochemical; settings: 0.5 nM enzyme, 2 μM substrate
T2 construct: made in house
T2 sequence (P18031 with tags, fused parts or gaps): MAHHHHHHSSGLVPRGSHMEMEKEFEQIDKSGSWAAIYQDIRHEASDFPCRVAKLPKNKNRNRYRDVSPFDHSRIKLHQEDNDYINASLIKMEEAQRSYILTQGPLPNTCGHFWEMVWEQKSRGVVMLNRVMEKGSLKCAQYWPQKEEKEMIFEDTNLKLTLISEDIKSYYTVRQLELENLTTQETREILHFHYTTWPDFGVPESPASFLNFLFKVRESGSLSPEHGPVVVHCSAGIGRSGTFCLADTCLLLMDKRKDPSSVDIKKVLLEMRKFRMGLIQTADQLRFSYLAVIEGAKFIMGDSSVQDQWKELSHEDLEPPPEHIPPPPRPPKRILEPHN
Procedure, shortened: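 Readout is microfluidic mobility shift (ex 488/em 530 nm) of a 2 μM OG488-labelled pTyr insulin-receptor peptide after a 10 min room-temperature reaction, following 10 min enzyme–compound preincubation. Enzyme: 0.5 nM full-length His-tagged PTPN1 in HEPES pH 7.5 buffer. IC50 fitted from % inhibition at 12 concentrations (1:3 steps).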

| Structure (SMILES) | IC50 [2] | IC50 [1] |
| --- | --- | --- |
| Cn1ccc(CN[C@@H]2CCc3cc(O)c(N4CC(=O)NS4(=O)=O)c(F)c3C2)c1 [Compound 346, 5-[(7R)-1-fluoro-3-hydroxy-7-{[(1-methyl-1H-pyrrol-3-yl)methyl]amino}-5,6,7,8-tetrahydronaphthalen-2-yl]-1λ^6,2,5-thiadiazolidine-1,1,3-trione] | 10 to 100 nM | 1 to 10 nM |
| O=C1CN(c2c(O)cc3c(c2F)C[C@H](NCc2ccnnc2)CC3)S(=O)(=O)N1 [Compound 368, 5-[(7R)-1-fluoro-3-hydroxy-7-{[(pyridazin-4-yl)methyl]amino}-5,6,7,8-tetrahydronaphthalen-2-yl]-1λ^6,2,5-thiadiazolidine-1,1,3-trione] | 10 to 100 nM | 10 to 100 nM |
| Cc1n[nH]c(C)c1CCN1Cc2c(cc(O)c(N3CC(=O)NS3(=O)=O)c2F)C(F)(F)C1 [Compound 320] | > 100 nM | > 100 nM |
| CC(C)C(F)CNC1CCc2cc(O)c(N3CC(=O)NS3(=O)=O)c(F)c2C1 (stereo not shown) [Compound 334, 5-{1-fluoro-7-[(2-fluoro-3-methylbutyl)amino]-3-hydroxy-5,6,7,8-tetrahydronaphthalen-2-yl}-1λ^6,2,5-thiadiazolidine-1,1,3-trione] | 1 to 10 nM | 1 to 10 nM |
| O=C1CN(c2c(O)cc3c(c2F)C[C@H](NCCC2CCOC2)CC3)S(=O)(=O)N1 (stereo partly drawn) [Compound 356, 5-[(7R)-1-fluoro-3-hydroxy-7-{[2-(oxolan-3-yl)ethyl]amino}-5,6,7,8-tetrahydronaphthalen-2-yl]-1λ^6,2,5-thiadiazolidine-1,1,3-trione] | 1 to 10 nM | < 1 nM |
| O=C1CN(c2c(O)cc3c(c2F)C[C@H](NCCC2CC(F)(F)C2)CC3)S(=O)(=O)N1 [Compound 202] | 1 to 10 nM | < 1 nM |
| Cc1noc(C)c1CCN1Cc2c(cc(O)c(N3CC(=O)NS3(=O)=O)c2F)C(F)(F)C1 [Compound 306] | > 100 nM | > 100 nM |
| C[C@@H]1C[C@@H](NC(=O)OC(C)(C)C)Cc2c1cc(O)c(N1CC(=O)NS1(=O)=O)c2F [Compound 395, tert-butyl [(2R,4R)-8-fluoro-6-hydroxy-4-methyl-7-(1,1,4-trioxo-1λ^6,2,5-thiadiazolidin-2-yl)-1,2,3,4-tetrahydronaphthalen-2-yl]carbamate] | > 100 nM | > 100 nM |
| O=C1CN(c2c(O)cc3c(c2F)C[C@H](NCCCC(F)F)CO3)S(=O)(=O)N1 [Compound 373, 5-{(3S)-3-[(4,4-difluorobutyl)amino]-5-fluoro-7-hydroxy-3,4-dihydro-2H-1-benzopyran-6-yl}-1λ^6,2,5-thiadiazolidine-1,1,3-trione] | 10 to 100 nM | 1 to 10 nM |

More lines, main results first:

| IC50 [2] | Structure (SMILES) | IC50 [1] |
| --- | --- | --- |
| 1 to 10 nM | Cc1nn(C(C)C)c(C)c1CCN1CCc2cc(O)c(N3CC(=O)NS3(=O)=O)c(F)c2C1 [Compound 273] | 1 to 10 nM |
| > 100 nM | CCCCC(=N)N1CCc2cc(O)c(N3CC(=O)NS3(=O)=O)c(F)c2C1 [Compound 158] | 10 to 100 nM |
| 10 to 100 nM | O=C1CN(c2c(O)cc3c(c2F)CN(CC2CCNCC2)CC3)S(=O)(=O)N1 [Compound 228] | > 100 nM |
| > 100 nM | O=C1CN(c2c(O)cc3c(c2F)CNCC3)S(=O)(=O)N1 [Compound 143, 5-(8-fluoro-6-hydroxy-1,2,3,4-tetrahydroisoquinolin-7-yl)-1λ^6,2,5-thiadiazolidine-1,1,3-trione] | 10 to 100 nM |
| 10 to 100 nM | CC(=O)NC1CCc2cc(O)c(N3CC(=O)NS3(=O)=O)c(F)c2C1 (stereo not shown) [Compound 322] | 10 to 100 nM |
| 10 to 100 nM | NCCCN1CCc2cc(O)c(N3CC(=O)NS3(=O)=O)c(F)c2C1 [Compound 218] | > 100 nM |
| 10 to 100 nM | CC(C)CCC(=O)N1CCc2cc(O)c(N3CC(=O)NS3(=O)=O)c(F)c2C1 [Compound 144] | 1 to 10 nM |
| 10 to 100 nM | O=C1CN(c2c(O)cc3c(c2F)CN(CCCCC(F)(F)F)CC3)S(=O)(=O)N1 [Compound 153, 5-[8-fluoro-6-hydroxy-2-(5,5,5-trifluoropentyl)-1,2,3,4-tetrahydroisoquinolin-7-yl]-1λ^6,2,5-thiadiazolidine-1,1,3-trione] | 10 to 100 nM |
